For this data set, the system named is Dkk1-LRP5-TCF-Luciferase. As to the kind of experiment: Functional Dkk1-LRP5-TCF-Luciferase Assay in U2OS Cells. The conditions noted are these: for fold induction at 2 µM / fold induction at 20 µM / EC50: Homo sapiens, U2OS; for fold induction at 2 µM: read-out: B = TCF ACTIVITY/DMSO CONTROL Fold induction @ 2.0 uM, 2.0 uM compound; for fold induction at 20 µM: read-out: C = TCF ACTIVITY/DMSO CONTROL Fold induction @ 20.0 uM, 20.0 uM compound; for A = MAX FOLD Induction/DMSO CONTROL: maximum fold induction over DMSO control.

Regarding `c1ccc2cc(-c3ccnc(NC4CCCC4)n3)ccc2c1` [N-cyclopentyl-4-(2-naphthyl)pyrimidin-2-amine], the fold induction at 2 µM came to 1.95 and the fold induction at 20 µM is 0.83.
For the compound `CCNC(=O)N1CC(CNc2nccc(-c3ccc4ccccc4c3)n2)C1` [N-ethyl-3-({[4-(2-naphthyl)pyrimidin-2-yl]amino}methyl)azetidine-1-carboxamide], the fold induction at 2 µM came out at 1.57.
For `CCNC(=O)N1CCC(CNc2nccc(-c3ccc4ccccc4c3)n2)CC1` [N-ethyl-4-({[4-(2-naphthyl)pyrimidin-2-yl]amino}methyl)piperidine-1-carboxamide], the fold induction at 2 µM is 1.35 and the fold induction at 20 µM is 1.3.
What is called EC50 is the concentration at which the effect is half-maximal. `CCNC(=O)N1CCCN(c2nccc(-c3ccc4ccccc4c3)n2)CC1` [N-ethyl-4-[4-(2-naphthyl)pyrimidin-2-yl]-1,4-diazepane-1-carboxamide]: the EC50 stood at 12.7 µM, the fold induction at 20 µM is 2.58 and the “A = MAX FOLD Induction/DMSO CONTROL” value worked out at 1.640 fold.
With `CCNC(=O)N1CCC(Nc2nccc(-c3ccc4ccccc4c3)n2)CC1` [N-ethyl-4-{[4-(2-naphthyl)pyrimidin-2-yl]amino}piperidine-1-carboxamide], the half-maximal effective concentration (EC50) turned out to be 18.2 µM, the fold induction at 2 µM worked out at 1.14, the fold induction at 20 µM amounted to 1.6 and the “A = MAX FOLD Induction/DMSO CONTROL” value turned out to be 2.280 fold.
Consider `CCNC(=O)N1CCC(N(C)c2nccc(-c3ccc4ccccc4c3)n2)CC1` [N-ethyl-4-{methyl[4-(2-naphthyl)pyrimidin-2-yl]amino}piperidine-1-carboxamide], for which the fold induction at 2 µM turned out to be 1.2 and the fold induction at 20 µM is 1.45.
Regarding `CCN(C)CCN(C)[C@@H]1CCN(c2nccc(-c3ccc4ccccc4c3)n2)C1` [N-ethyl-N,N′-dimethyl-N′-{(3R)-1-[4-(2-naphthyl)pyrimidin-2-yl]pyrrolidin-3-yl}ethane-1,2-diamine], the fold induction at 2 µM turned out to be 1.8.
Consider `CCN(CCO)C(=O)[C@@H]1CCCN1c1nccc(-c2ccc3ccccc3c2)n1` [N-ethyl-N-(2-hydroxyethyl)-1-[4-(2-naphthyl)pyrimidin-2-yl]-L-prolinamide], for which the fold induction at 2 µM worked out at 1.03 and the fold induction at 20 µM was determined as 1.63.
On to `CCN(CC)CC1CCN(c2nccc(-c3ccc4ccccc4c3)n2)CC1` [N-ethyl-N-({1-[4-(2-naphthyl)pyrimidin-2-yl]piperidin-4-yl}methyl)ethanamine], for which the fold induction at 2 µM was 1.14 and the fold induction at 20 µM turned out to be 0.02.
As to `CCN(CC)CC1CCN(c2nccc(-c3ccc4ccccc4c3)n2)C1` (stereo not shown) [N-ethyl-N-({1-[4-(2-naphthyl)pyrimidin-2-yl]pyrrolidin-3-yl}methyl)ethanamine], the fold induction at 2 µM worked out at 1.58.
For the compound `CCNC(=O)NCCC1CCN(c2nccc(-c3ccc4ccccc4c3)n2)CC1` [N-ethyl-N′-(2-{1-[4-(2-naphthyl)pyrimidin-2-yl]piperidin-4-yl}ethyl)urea], the fold induction at 2 µM was determined as 1.78 and the fold induction at 20 µM stood at 1.87.
`CCNC(=O)NCCN1CCN(c2nccc(-c3ccc4ccccc4c3)n2)CC1` [N-ethyl-N′-(2-{4-[4-(2-naphthyl)pyrimidin-2-yl]piperazin-1-yl}ethyl)urea]: the fold induction at 2 µM came out at 1.09 and the fold induction at 20 µM came out at 0.28.
On to `CCNC(=O)N[C@H]1CC[C@H](Nc2nccc(-c3ccc4ccccc4c3)n2)CC1` [N-ethyl-N′-(trans-4-{[4-(2-naphthyl)pyrimidin-2-yl]amino}cyclohexyl)urea], for which the fold induction at 2 µM was 2.84, the fold induction at 20 µM is 2.35 and the “A = MAX FOLD Induction/DMSO CONTROL” value worked out at 2.740 fold.
Turning to `CCNC(=O)NCC1CN(c2nccc(-c3ccc4ccccc4c3)n2)C1` [N-ethyl-N′-({1-[4-(2-naphthyl)pyrimidin-2-yl]azetidin-3-yl}methyl)urea], the fold induction at 20 µM was found to be 1.06.
For `CCNC(=O)NCC1CCN(c2nccc(-c3ccc4ccccc4c3)n2)CC1` [N-ethyl-N′-({1-[4-(2-naphthyl)pyrimidin-2-yl]piperidin-4-yl}methyl)urea], the fold induction at 2 µM came to 1.7 and the fold induction at 20 µM is 1.34.
In the same order, the values of `CCNC(=O)NCC1CCN(c2nccc(-c3ccc4ccccc4c3)n2)C1` (stereo not shown) [N-ethyl-N′-({1-[4-(2-naphthyl)pyrimidin-2-yl]pyrrolidin-3-yl}methyl)urea] are 0.93 and 1.2.
In the case of `CCNC(=O)NC1CCCN(c2nccc(-c3ccc4ccccc4c3)n2)CC1` (stereo not shown) [N-ethyl-N′-{1-[4-(2-naphthyl)pyrimidin-2-yl]azepan-4-yl}urea], the fold induction at 2 µM came out at 2.33, the fold induction at 20 µM was 2.56 and the “A = MAX FOLD Induction/DMSO CONTROL” value was determined as 1.320 fold.
As to `CCNC(=O)N[C@H]1CCN(c2nccc(-c3ccc4ccccc4c3)n2)C1` [N-ethyl-N′-{(3S)-1-[4-(2-naphthyl)pyrimidin-2-yl]pyrrolidin-3-yl}urea], the fold induction at 2 µM was determined as 1.03 and the fold induction at 20 µM was determined as 0.6.
For `CC(C)CNc1nccc(-c2ccc3ccccc3c2)n1` [N-isobutyl-4-(2-naphthyl)pyrimidin-2-amine], the fold induction at 2 µM came to 1.77.
Still for that read-out and setting: to `CC(C)Nc1nccc(-c2ccc3ccccc3c2)n1` [N-isopropyl-4-(2-naphthyl)pyrimidin-2-amine] belongs 1.64.
In the case of `CC(C)NC(=O)N1CCC(CNc2nccc(-c3ccc4ccccc4c3)n2)CC1` [N-isopropyl-4-({[4-(2-naphthyl)pyrimidin-2-yl]amino}methyl)piperidine-1-carboxamide], the fold induction at 2 µM was found to be 1.31 and the fold induction at 20 µM was 0.54.
With `CC(C)NC(=O)N1CCC(Nc2nccc(-c3ccc4ccccc4c3)n2)CC1` [N-isopropyl-4-{[4-(2-naphthyl)pyrimidin-2-yl]amino}piperidine-1-carboxamide], the fold induction at 2 µM is 1.07 and the fold induction at 20 µM worked out at 1.37.
On to `CC(C)N(C)CCN(C)[C@@H]1CCN(c2nccc(-c3ccc4ccccc4c3)n2)C1` [N-isopropyl-N,N′-dimethyl-N′-{(3R)-1-[4-(2-naphthyl)pyrimidin-2-yl]pyrrolidin-3-yl}ethane-1,2-diamine], for which the fold induction at 2 µM was 2.2.
`CC(C)NC(=O)NCCC1CCN(c2nccc(-c3ccc4ccccc4c3)n2)CC1` [N-isopropyl-N′-(2-{1-[4-(2-naphthyl)pyrimidin-2-yl]piperidin-4-yl}ethyl)urea]: the fold induction at 2 µM amounted to 1.46 and the fold induction at 20 µM is 1.58.
Taken in the same sequence, the figures for `CC(C)NC(=O)NCCN1CCN(c2nccc(-c3ccc4ccccc4c3)n2)CC1` [N-isopropyl-N′-(2-{4-[4-(2-naphthyl)pyrimidin-2-yl]piperazin-1-yl}ethyl)urea] were 1.06 and 0.1.
In the same order, the values of `CC(C)NC(=O)N[C@@H]1CCN(c2nccc(-c3ccc4ccccc4c3)n2)C1` [N-isopropyl-N′-{(3R)-1-[4-(2-naphthyl)pyrimidin-2-yl]pyrrolidin-3-yl}urea] are 1.19 and 1.09.
Regarding `CC(C)NC(=O)N[C@H]1CCN(c2nccc(-c3ccc4ccccc4c3)n2)C1` [N-isopropyl-N′-{(3S)-1-[4-(2-naphthyl)pyrimidin-2-yl]pyrrolidin-3-yl}urea], the fold induction at 2 µM was 1.12 and the fold induction at 20 µM stood at 0.79.
For `CNC(=O)[C@H]1CCCN1c1nccc(-c2ccc3ccccc3c2)n1` [N-methyl-1-[4-(2-naphthyl)pyrimidin-2-yl]-D-prolinamide], the fold induction at 2 µM turned out to be 1.13 and the fold induction at 20 µM was determined as 1.32.
With `CNCC1CCN(c2nccc(-c3ccc4ccccc4c3)n2)CC1` [N-methyl-1-{1-[4-(2-naphthyl)pyrimidin-2-yl]piperidin-4-yl}methanamine], the fold induction at 2 µM stood at 1.49, the fold induction at 20 µM is 0.01 and the “A = MAX FOLD Induction/DMSO CONTROL” value is 2.840 fold.
In the same order, the values of `CNC[C@H]1CCN(c2nccc(-c3ccc4ccccc4c3)n2)C1` [N-methyl-1-{(3R)-1-[4-(2-naphthyl)pyrimidin-2-yl]pyrrolidin-3-yl}methanamine] are 2.76, 0.01 and 1.030 fold.
Consider `CNC[C@@H]1CCN(c2nccc(-c3ccc4ccccc4c3)n2)C1` [N-methyl-1-{(3S)-1-[4-(2-naphthyl)pyrimidin-2-yl]pyrrolidin-3-yl}methanamine], for which it took 2.35 µM to reach a half-maximal effect (EC50), the fold induction at 2 µM came to 2.74, the fold induction at 20 µM is 0.503 and the “A = MAX FOLD Induction/DMSO CONTROL” value is listed as 4.773 fold.
In the case of `CCCN1CCC(N(C)c2nccc(-c3ccc4ccccc4c3)n2)CC1` [N-methyl-4-(2-naphthyl)-N-(1-propylpiperidin-4-yl)pyrimidin-2-amine], the fold induction at 2 µM was 1.74.
Take `CN(c1nccc(-c2ccc3ccccc3c2)n1)C1CCN(c2ncccn2)CC1` [N-methyl-4-(2-naphthyl)-N-(1-pyrimidin-2-ylpiperidin-4-yl)pyrimidin-2-amine]: the fold induction at 2 µM was found to be 1.7.
On the same count and under the same terms, to `CN(c1nccc(-c2ccc3ccccc3c2)n1)C1CCN(C(=O)N2CCCC2)CC1` [N-methyl-4-(2-naphthyl)-N-[1-(pyrrolidin-1-ylcarbonyl)piperidin-4-yl]pyrimidin-2-amine] belongs 1.81.
Turning to `CN(c1nccc(-c2ccc3ccccc3c2)n1)C1CCN(C(=O)C(F)(F)F)CC1` [N-methyl-4-(2-naphthyl)-N-[1-(trifluoroacetyl)piperidin-4-yl]pyrimidin-2-amine], the fold induction at 2 µM stood at 1.03 and the fold induction at 20 µM was 1.06.
Take `CN(c1nccc(-c2ccc3ccccc3c2)n1)C1CCNCC1` [N-methyl-4-(2-naphthyl)-N-piperidin-4-ylpyrimidin-2-amine]: it took 1.8 µM to reach a half-maximal effect (EC50), the fold induction at 2 µM was determined as 2.65, the fold induction at 20 µM came to 1.35 and the “A = MAX FOLD Induction/DMSO CONTROL” value worked out at 2.320 fold.

Values taken from patent US20090054392A1, “NAPHTHYLPYRIMIDINE, NAPHTHYLPYRAZINE AND NAPHTHYLPYRIDAZINE ANALOGS AND THEIR USE AS AGONISTS OF THE WNT-BETA-CATENIN CELLULAR MESSAGING SYSTEM” (Wyeth, priority 2007, published 2009).
